Patent publication US20080200454A1, “CARBON-LINKED TETRAHYDRO-PYRAZOLO-PYRIDINE MODULATORS OF CATHEPSIN S” (priority 2007, published 2008)

Molecular target: Recombinant human cathepsin S (CatS) (Homo sapiens, UniProt P25774)
Assay: Recombinant human cathepsin S (CatS) inhibition assay, fluorogenic substrate Z-Valine-Valine-Arginine-AMC;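 also: Baculovirus-expressed CatS in pH 5.0 sodium acetate buffer with DTT and NaCl, fluorescence read each minute over 20 min, inhibition derived from rate slope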

Chain of Recombinant human cathepsin S (CatS) (P25774 115-331): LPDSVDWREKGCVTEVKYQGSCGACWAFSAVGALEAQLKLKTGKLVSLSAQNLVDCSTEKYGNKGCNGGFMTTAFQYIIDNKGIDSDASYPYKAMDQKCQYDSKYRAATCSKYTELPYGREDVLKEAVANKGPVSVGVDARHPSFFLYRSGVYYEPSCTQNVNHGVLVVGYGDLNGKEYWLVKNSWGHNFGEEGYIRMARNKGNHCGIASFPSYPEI

SMILES	IC50
CS(=O)(=O)N1CCc2c(c(-c3ccc(Cl)c(CCCCN4CCCCC4)c3)nn2CCCN2CCC(N3CCCC3=O)CC2)C1 [Example 110, 1-[1-(3-{3-[4-Chloro-3-(4-piperidin-1-yl-butyl)-phenyl]-5-methanesulfonyl-4,5,6,7-tetrahydro-pyrazolo[4,3-c]pyridin-1-yl}-propyl)-piperidin-4-yl]-pyrrolidin-2-one]	3.03 µM
CC1CCCN(CCCCc2cc(-c3nn(CCCN4CCC(N5CCCC5=O)CC4)c4c3CN(S(C)(=O)=O)CC4)ccc2Cl)C1 (stereo not drawn) [Example 111, 1-{1-[3-(3-{4-Chloro-3-[4-(3-methyl-piperidin-1-yl)-butyl]-phenyl}-5-methanesulfonyl-4,5,6,7-tetrahydro-pyrazolo[4,3-c]pyridin-1-yl)-propyl]-piperidin-4-yl}-pyrrolidin-2-one]	2.04 µM
CN1CCN(CCCCc2cc(-c3nn(CCCN4CCC(N5CCCC5=O)CC4)c4c3CN(S(C)(=O)=O)CC4)ccc2Cl)CC1 [Example 112, 1-{1-[3-(3-{4-Chloro-3-[4-(4-methyl-piperazin-1-yl)-butyl]-phenyl}-5-methanesulfonyl-4,5,6,7-tetrahydro-pyrazolo[4,3-c]pyridin-1-yl)-propyl]-piperidin-4-yl}-pyrrolidin-2-one]	4.92 µM
CS(=O)(=O)N1CCc2c(c(-c3ccc(Cl)c(CCCCN4CCOCC4)c3)nn2CCCN2CCC(N3CCCC3=O)CC2)C1 [Example 113, 1-[1-(3-{3-[4-Chloro-3-(4-morpholin-4-yl-butyl)-phenyl]-5-methanesulfonyl-4,5,6,7-tetrahydro-pyrazolo[4,3-c]pyridin-1-yl}-propyl)-piperidin-4-yl]-pyrrolidin-2-one]	3.58 µM
CS(=O)(=O)N1CCc2c(c(-c3ccc(Cl)c(CCCCN4CCCCCC4)c3)nn2CCCN2CCC(N3CCCC3=O)CC2)C1 [Example 114, 1-[1-(3-{3-[3-(4-Azepan-1-yl-butyl)-4-chloro-phenyl]-5-methanesulfonyl-4,5,6,7-tetrahydro-pyrazolo[4,3-c]pyridin-1-yl}-propyl)-piperidin-4-yl]-pyrrolidin-2-one]	1.52 µM
CS(=O)(=O)N1CCc2c(c(-c3ccc(Cl)c(CCCCNC4CCCC4)c3)nn2CCCN2CCC(N3CCCC3=O)CC2)C1 [Example 115, 1-[1-(3-{3-[4-Chloro-3-(4-cyclopentylamino-butyl)-phenyl]-5-methanesulfonyl-4,5,6,7-tetrahydro-pyrazolo[4,3-c]pyridin-1-yl}-propyl)-piperidin-4-yl]-pyrrolidin-2-one]	1.69 µM
CS(=O)(=O)N1CCc2c(c(-c3ccc(C(F)(F)F)c(C#Cc4ccc(Cl)cc4)c3)nn2CC(O)CN2CCC(N3CCCC3=O)CC2)C1 (stereo not drawn) [Example 116, 1-[1-(3-{3-[3-(4-Chloro-phenylethynyl)-4-trifluoromethyl-phenyl]-5-methanesulfonyl-4,5,6,7-tetrahydro-pyrazolo[4,3-c]pyridin-1-yl}-2-hydroxy-propyl)-piperidin-4-yl]-pyrrolidin-2-one]	0.04 µM
COC(=O)C1CCN(CC(O)Cn2nc(-c3ccc(C(F)(F)F)c(C#Cc4ccc(Cl)cc4)c3)c3c2CCN(S(C)(=O)=O)C3)CC1 (stereo not drawn) [Example 117, 1-(3-{3-[3-(4-Chloro-phenylethynyl)-4-trifluoromethyl-phenyl]-5-methanesulfonyl-4,5,6,7-tetrahydro-pyrazolo[4,3-c]pyridin-1-yl}-2-hydroxy-propyl)-piperidine-4-carboxylic acid methyl ester]	0.04 µM
CS(=O)(=O)N1CCc2c(c(-c3ccc(C(F)(F)F)c(C#Cc4ccc(Cl)cc4)c3)nn2CC(O)CN2CCC(C(N)=O)CC2)C1 (stereo not drawn) [Example 119, 1-(3-{3-[3-(4-Chloro-phenylethynyl)-4-trifluoromethyl-phenyl]-5-methanesulfonyl-4,5,6,7-tetrahydro-pyrazolo[4,3-c]pyridin-1-yl}-2-hydroxy-propyl)-piperidine-4-carboxylic acid amide]	0.06 µM
CN(C)c1ccc2c(n1)n(C1CCN(CC(O)Cn3nc(-c4ccc(C(F)(F)F)c(C#Cc5ccc(Cl)cc5)c4)c4c3CCN(S(C)(=O)=O)C4)CC1)c(=O)n2C (stereo not drawn) [Example 120, 3-[1-(3-{3-[3-(4-Chloro-phenylethynyl)-4-trifluoromethyl-phenyl]-5-methanesulfonyl-4,5,6,7-tetrahydro-pyrazolo[4,3-c]pyridin-1-yl}-2-hydroxy-propyl)-piperidin-4-yl]-5-dimethylamino-1-methyl-1,3-dihydro-imidazo[4,5-b]pyridin-2-one]	0.03 µM
CC(C)(C)OC(=O)NC1CCN(CC(O)Cn2nc(-c3ccc(C(F)(F)F)c(C#Cc4ccc(Cl)cc4)c3)c3c2CCN(S(C)(=O)=O)C3)CC1 (stereo not drawn) [Example 121, [1-(3-{3-[3-(4-Chloro-phenylethynyl)-4-trifluoromethyl-phenyl]-5-methanesulfonyl-4,5,6,7-tetrahydro-pyrazolo[4,3-c]pyridin-1-yl}-2-hydroxy-propyl)-piperidin-4-yl]-carbamic acid tert-butyl ester]	0.15 µM
CS(=O)(=O)N1CCc2c(c(-c3ccc(C(F)(F)F)c(C#Cc4ccc(Cl)cc4)c3)nn2CC(O)CN2CCOCC2)C1 (stereo not drawn) [Example 122, 1-{3-[3-(4-Chloro-phenylethynyl)-4-trifluoromethyl-phenyl]-5-methanesulfonyl-4,5,6,7-tetrahydro-pyrazolo[4,3-c]pyridin-1-yl}-3-morpholin-4-yl-propan-2-ol]	0.26 µM
CS(=O)(=O)N1CCc2c(c(-c3ccc(Cl)c(C#Cc4ccc(Cl)cc4)c3)nn2CC(O)CN2CCC(N3CCCC3=O)CC2)C1 (stereo not drawn) [Example 123]	0.01 µM
CS(=O)(=O)N1CCc2c(c(-c3ccc(Cl)c(C#Cc4ccc(Cl)cc4)c3)nn2CC(O)CN2CCOCC2)C1 (stereo not drawn) [Example 124, 1-{3-[4-Chloro-3-(4-chloro-phenylethynyl)-phenyl]-5-methanesulfonyl-4,5,6,7-tetrahydro-pyrazolo[4,3-c]pyridin-1-yl}-3-morpholin-4-yl-propan-2-ol]	0.15 µM
CS(=O)(=O)N1CCc2c(c(-c3ccc(Cl)c(C#Cc4ccc(Cl)cc4)c3)nn2CC(O)CN2CCCCC2)C1 (stereo not drawn) [Example 125, 1-{3-[4-Chloro-3-(4-chloro-phenylethynyl)-phenyl]-5-methanesulfonyl-4,5,6,7-tetrahydro-pyrazolo[4,3-c]pyridin-1-yl}-3-piperidin-1-yl-propan-2-ol]	0.08 µM

The next lines start with the values.

IC50	SMILES
0.01 µM	CN(C)c1ccc2c(n1)n(C1CCN(CC(O)Cn3nc(-c4ccc(Cl)c(C#Cc5ccc(Cl)cc5)c4)c4c3CCN(S(C)(=O)=O)C4)CC1)c(=O)n2C (stereo not drawn) [Example 126, 3-[1-(3-{3-[4-Chloro-3-(4-chloro-phenylethynyl)-phenyl]-5-methanesulfonyl-4,5,6,7-tetrahydro-pyrazolo[4,3-c]pyridin-1-yl}-2-hydroxy-propyl)-piperidin-4-yl]-5-dimethylamino-1-methyl-1,3-dihydro-imidazo[4,5-b]pyridin-2-one]
0.02 µM	COC(=O)C1CCN(CC(O)Cn2nc(-c3ccc(Cl)c(C#Cc4ccc(Cl)cc4)c3)c3c2CCN(S(C)(=O)=O)C3)CC1 (stereo not drawn) [Example 127, 1-(3-{3-[4-Chloro-3-(4-chloro-phenylethynyl)-phenyl]-5-methanesulfonyl-4,5,6,7-tetrahydro-pyrazolo[4,3-c]pyridin-1-yl}-2-hydroxy-propyl)-piperidine-4-carboxylic acid methyl ester]
0.11 µM	CS(=O)(=O)N1CCc2c(c(-c3ccc(Cl)c(C#Cc4ccc(Cl)cc4)c3)nn2CC(O)CN2CCC(C(N)=O)CC2)C1 (stereo not drawn) [Example 128, 1-(3-{3-[4-Chloro-3-(4-chloro-phenylethynyl)-phenyl]-5-methanesulfonyl-4,5,6,7-tetrahydro-pyrazolo[4,3-c]pyridin-1-yl}-2-hydroxy-propyl)-piperidine-4-carboxylic acid amide]
0.12 µM	CS(=O)(=O)N1CCc2c(c(-c3ccc(Cl)c(C#Cc4ccc(Cl)cc4)c3)nn2CC(O)CN2CCCC2)C1 (stereo not drawn) [Example 129, 1-{3-[4-Chloro-3-(4-chloro-phenylethynyl)-phenyl]-5-methanesulfonyl-4,5,6,7-tetrahydro-pyrazolo[4,3-c]pyridin-1-yl}-3-pyrrolidin-1-yl-propan-2-ol]
0.08 µM	CC(C)(C)OC(=O)NC1CCN(CC(O)Cn2nc(-c3ccc(Cl)c(C#Cc4ccc(Cl)cc4)c3)c3c2CCN(S(C)(=O)=O)C3)CC1 (stereo not drawn) [Example 130, [1-(3-{3-[4-Chloro-3-(4-chloro-phenylethynyl)-phenyl]-5-methanesulfonyl-4,5,6,7-tetrahydro-pyrazolo[4,3-c]pyridin-1-yl}-2-hydroxy-propyl)-piperidin-4-yl]-carbamic acid tert-butyl ester]
0.16 µM	CC(C)(C)OC(=O)N1CCN(CC(O)Cn2nc(-c3ccc(Cl)c(C#Cc4ccc(Cl)cc4)c3)c3c2CCN(S(C)(=O)=O)C3)CC1 (stereo not drawn) [Example 131, 4-(3-{3-[4-Chloro-3-(4-chloro-phenylethynyl)-phenyl]-5-methanesulfonyl-4,5,6,7-tetrahydro-pyrazolo[4,3-c]pyridin-1-yl}-2-hydroxy-propyl)-piperazine-1-carboxylic acid tert-butyl ester]
0.39 µM	CS(=O)(=O)N1CCc2c(c(-c3ccc(Cl)c(C#Cc4ccc(Cl)cc4)c3)nn2CC(O)CN2CCNCC2)C1 (stereo not drawn) [Example 132, 1-{3-[4-Chloro-3-(4-chloro-phenylethynyl)-phenyl]-5-methanesulfonyl-4,5,6,7-tetrahydro-pyrazolo[4,3-c]pyridin-1-yl}-3-piperazin-1-yl-propan-2-ol]
0.29 µM	CS(=O)(=O)N1CCc2c(c(-c3ccc(Cl)c(C#Cc4ccc(Cl)cc4)c3)nn2CC(O)CN2CCC(N)CC2)C1 (stereo not drawn) [Example 133, 1-(4-Amino-piperidin-1-yl)-3-{3-[4-chloro-3-(4-chloro-phenylethynyl)-phenyl]-5-methanesulfonyl-4,5,6,7-tetrahydro-pyrazolo[4,3-c]pyridin-1-yl}-propan-2-ol]
0.18 µM	CS(=O)(=O)N1CCc2c(c(-c3ccc(Cl)c(C#Cc4ccc5c(c4)CNCC5)c3)nn2CC(O)CN2CCCCC2)C1 (stereo not drawn) [Example 134, 1-{3-[4-Chloro-3-(1,2,3,4-tetrahydro-isoquinolin-7-ylethynyl)-phenyl]-5-methanesulfonyl-4,5,6,7-tetrahydro-pyrazolo[4,3-c]pyridin-1-yl}-3-piperidin-1-yl-propan-2-ol]
